{
  "source": "patent US7491521B2",
  "about": "(priority 2004, dated 2009)",
  "key": {"E. coli harboring pUD15": {"system": "E. coli harboring pUD15", "format": "cell-based"}, "[1]": {"system": "E. coli harboring pUD15 and pUD16", "format": "cell-based"}},
  "note": "Values joined by “and” are separate entries in the source; they are usually repeats but may differ in a detail not shown here. Equal entries are not always repeated.",
  "data": [
    {"compound": "[Cl-].[Cl-].[Co+2]", "note": "[CoC12, CoCl2]", "values": [
      {"measurement": "optical density of the culture at 600 nm", "setting": "E. coli harboring pUD15", "value": "2.808 and 2.6955 and 2.330"},
      {"measurement": "optical density of the culture at 600 nm", "setting": "[1]", "value": "2.524 and 2.173 and 2.113"}
    ]}
  ]
}
